The values below come from ChEMBL document CHEMBL1201862, “PubChem BioAssay data set” (2004).

Test systems include OVCAR-4; NCI-H522; NCI-H460; A549; RPMI-8226; NCI-H23; TK-10; CCRF-CEM; KM12; MDA-MB-231; Hs-578T; CAKI-1; DU-145; U-251; NCI/ADR-RES; HOP-62; K562; A498; SNB-19; SK-MEL-28.
Assay in all cases: NCI-60 cell line screen, 48 h

SMILES strings stand for the structures.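 Following 48 hours of exposure in 96-well plates, responses at five concentrations were used to interpolate endpoints linearly. Here, GI50 denotes the concentration required for 50% inhibition of growth.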 Activity calls are given as the source filed them. No stated cut-off is given here; in the data, active = GI50 up to about 1.1 µM and inactive = higher.

Turning to `O=C1/C(=C/c2ccc(O)c(O)c2)CCC/C1=C\c1ccc(O)c(O)c1`, the GI50 in the test with OVCAR-4 is 5.38 µM (inactive); in the test on NCI-H522 it was 0.729 µM (active); with NCI-H460, 3.45 µM (inactive); in the test with A549, 7.41 µM (inactive); in the test on RPMI-8226, 2.48 µM (inactive); in the test on NCI-H23 it was 2.76 µM (inactive). Besides, the GI50 with TK-10 is 3.79 µM (inactive); in the test with CCRF-CEM, 1.52 µM (inactive); in the test with KM12, 3.95 µM (inactive); with MDA-MB-231, 5.14 µM (inactive); in the test with Hs-578T, 3.18 µM (inactive); in the test on CAKI-1 it was 3.68 µM (inactive). Besides, the GI50 is 4.5 µM (inactive) in the test with DU-145; 2.92 µM (inactive) in the test with U-251; 4.13 µM (inactive) in the test with NCI/ADR-RES; 4.13 µM (inactive) in the test on HOP-62; 3.71 µM (inactive) with K562; 7.64 µM (inactive) with A498. The GI50 is 7.08 µM (inactive) with SNB-19 and 3.94 µM (inactive) in the test with SK-MEL-28.
`CC1(C)SC2C(C(=O)O)N=C(Cc3ccccc3)N2C1C(=O)O` (configuration not stated): the GI50 with OVCAR-4 is 92.3 µM (inactive); with NCI-H522, 51.3 µM (inactive); with NCI-H460 it was 45.1 µM (inactive); in the test with A549 it was 31.8 µM (inactive); with RPMI-8226, 46.8 µM (inactive); in the test with NCI-H23, 86.3 µM (inactive). In addition, the GI50 was 20.4 µM (inactive) in the test on TK-10; > 100 µM (inactive) in the test with KM12; 43.3 µM (inactive) with MDA-MB-231; 29.4 µM (inactive) with Hs-578T; 43.7 µM (inactive) in the test on CAKI-1; 56.6 µM (inactive) with DU-145. For the same compound, the GI50 in the test on U-251 was 32.7 µM (inactive); with NCI/ADR-RES, 33.9 µM (inactive); in the test with HOP-62, 32.1 µM (inactive); with K562, 62.7 µM (inactive); in the test with A498 it was 53.7 µM (inactive); with SNB-19, 32.5 µM (inactive). Moreover, the GI50 in the test with SK-MEL-28 is 52.4 µM (inactive).
Turning to `Cc1ccc(/N=N/c2c(O)c3ccccc3[nH]c2=O)c(S(=O)(=O)N(C)C)c1`, the GI50 with OVCAR-4, with NCI-H522, in the test with NCI-H460, with A549, in the test with RPMI-8226 and with NCI-H23 was > 100 µM (inactive) each time. The GI50 in the test on TK-10, in the test with CCRF-CEM, in the test on KM12, in the test on MDA-MB-231, in the test on Hs-578T and in the test with CAKI-1 was > 100 µM (inactive) throughout. In addition, the GI50 with DU-145, in the test on U-251, with NCI/ADR-RES, in the test on HOP-62, in the test on K562 and in the test on A498 was > 100 µM (inactive) in each case. The GI50 in the test with SNB-19 and with SK-MEL-28 was > 100 µM (inactive) each time.
With `CN1CCC/C1=C1\C(=O)c2cccn2C1=O`, the GI50 in the test with OVCAR-4, in the test on NCI-H522, with NCI-H460, in the test with A549, with RPMI-8226 and with NCI-H23 was > 100 µM (inactive) in each case. Further, the GI50 with TK-10, in the test on CCRF-CEM, with KM12, in the test with MDA-MB-231, in the test on Hs-578T and with CAKI-1 was > 100 µM (inactive) in each case. Moreover, the GI50 in the test with DU-145, with U-251, in the test on NCI/ADR-RES, with HOP-62, with K562 and with A498 was > 100 µM (inactive) in each case. The GI50 with SNB-19 and in the test with SK-MEL-28 was > 100 µM (inactive) throughout.
As to `C=CCn1c(=O)c(C)cn(/C(=C/C(=O)OCC)C(=O)OCC)c1=O`, the GI50 with OVCAR-4 is 18.3 µM (inactive); in the test on NCI-H522, 1.69 µM (inactive); with NCI-H460, 25.4 µM (inactive); with A549 it was 30 µM (inactive); with RPMI-8226, 14.6 µM (inactive); in the test with NCI-H23 it was 16.1 µM (inactive). Also, the GI50 in the test with TK-10 was 15.4 µM (inactive); in the test on CCRF-CEM it was 1.42 µM (inactive); with KM12, 17.2 µM (inactive); in the test on MDA-MB-231, 15.5 µM (inactive); with Hs-578T, 24.5 µM (inactive); in the test on CAKI-1 it was 1.85 µM (inactive). Besides, the GI50 is 40.7 µM (inactive) in the test with DU-145; 14.4 µM (inactive) in the test with U-251; 21.1 µM (inactive) with NCI/ADR-RES; 51.1 µM (inactive) in the test with HOP-62; 4.19 µM (inactive) with K562; 22.1 µM (inactive) in the test on A498. Besides, the results for the GI50 in the test on SNB-19 and in the test with SK-MEL-28 were 46.9 µM (inactive) and 15.9 µM (inactive), respectively.
For `C=C1C(=O)C2=C[C@H]1C[C@H](O)C(=O)[C@]1(C)CCCC(C)(C)[C@H]1C[C@H]2O`, the GI50 in the test on OVCAR-4 was 3.94 µM (inactive); in the test on NCI-H522, 0.0428 µM (active); in the test on NCI-H460, 2.88 µM (inactive); in the test on A549 it was 0.665 µM (active); in the test with RPMI-8226, 0.235 µM (active); in the test with NCI-H23 it was 1.63 µM (inactive). Besides, the GI50 in the test with TK-10 was 0.787 µM (active); in the test on CCRF-CEM, 0.0488 µM (active); in the test on KM12 it was 2.93 µM (inactive); in the test on MDA-MB-231, 1.32 µM (inactive); in the test on Hs-578T, 2.76 µM (inactive); with CAKI-1, 1.48 µM (inactive). Also, the GI50 is 1.77 µM (inactive) in the test on DU-145; 1.32 µM (inactive) with U-251; 1.67 µM (inactive) in the test with NCI/ADR-RES; 12.9 µM (inactive) with HOP-62; 0.215 µM (active) in the test on K562; 1.86 µM (inactive) in the test with A498. Also, the GI50 was 16.1 µM (inactive) in the test with SNB-19 and 1.73 µM (inactive) in the test with SK-MEL-28.
As for `CN(C)CCNC(=O)c1c(O)ccc2c1c1c(n2CCc2ccccc2)C(=O)c2ccccc2C1=O`, the GI50 in the test with OVCAR-4 was 11.6 µM (inactive); in the test with NCI-H522, 8.67 µM (inactive); in the test with NCI-H460 it was 3.58 µM (inactive); with A549, 8.53 µM (inactive); in the test on RPMI-8226 it was 2.75 µM (inactive); with NCI-H23, 14.4 µM (inactive). Besides, the GI50 in the test with TK-10 is 7.93 µM (inactive); with CCRF-CEM, 0.826 µM (active); in the test with KM12 it was 4.15 µM (inactive); in the test on MDA-MB-231 it was 5.27 µM (inactive); in the test on Hs-578T, 9.73 µM (inactive); with CAKI-1, 7.08 µM (inactive). The GI50 was 4.57 µM (inactive) with DU-145; 4.4 µM (inactive) in the test on U-251; 13.5 µM (inactive) in the test with NCI/ADR-RES; 10.6 µM (inactive) in the test on HOP-62; 2.39 µM (inactive) in the test with K562; 14.8 µM (inactive) with A498. The values for the GI50 with SNB-19 and in the test with SK-MEL-28 were 9.68 µM (inactive) and 1.98 µM (inactive), respectively.
With `O=C1c2ccccc2C(=O)c2sc(Nc3cc(Cl)ccc3Cl)nc21`, the GI50 in the test on OVCAR-4 was 4.16 µM (inactive); in the test on NCI-H522, 2.95 µM (inactive); in the test with NCI-H460, 6.68 µM (inactive); with A549 it was 16.4 µM (inactive); in the test on RPMI-8226, 3.22 µM (inactive); in the test on NCI-H23 it was 4.72 µM (inactive). Besides, the GI50 in the test on TK-10 is 15 µM (inactive); in the test on CCRF-CEM, 4.29 µM (inactive); in the test on KM12 it was 12.2 µM (inactive); in the test on MDA-MB-231, 1.87 µM (inactive); in the test on Hs-578T, 9.25 µM (inactive); in the test with CAKI-1, 5.02 µM (inactive). For the same compound, the GI50 with DU-145 is 8.57 µM (inactive); in the test with U-251 it was 6.56 µM (inactive); with NCI/ADR-RES it was 2.63 µM (inactive); in the test on HOP-62, 15 µM (inactive); in the test with K562, 2.99 µM (inactive); in the test with A498 it was 21 µM (inactive). In addition, the GI50 in the test on SNB-19 was 14.3 µM (inactive); in the test with SK-MEL-28 it was 6.7 µM (inactive).
Take `COc1ccc(-c2c(C#N)c(=O)nc(SC)n2C2OCC(OC(C)=O)C(OC(C)=O)C2OC(C)=O)cc1` (configuration not stated): the GI50 is > 100 µM (inactive) in the test on OVCAR-4; 74 µM (inactive) in the test with NCI-H522; 27.2 µM (inactive) with NCI-H460; 82.4 µM (inactive) in the test with A549; 37.7 µM (inactive) in the test with RPMI-8226; > 100 µM (inactive) in the test with NCI-H23. Besides, the GI50 in the test on TK-10 is > 100 µM (inactive); with CCRF-CEM, 29 µM (inactive); in the test on KM12, > 100 µM (inactive); in the test on MDA-MB-231, 58.7 µM (inactive); in the test on Hs-578T, 31.6 µM (inactive); in the test on CAKI-1 it was > 100 µM (inactive). Moreover, the GI50 in the test with DU-145 is > 100 µM (inactive); with U-251, 57.8 µM (inactive); with NCI/ADR-RES, 91.2 µM (inactive); in the test with HOP-62, > 100 µM (inactive); with K562, 18.1 µM (inactive); in the test on A498 it was 62.1 µM (inactive). Further, the GI50 is 91.8 µM (inactive) in the test on SNB-19 and > 100 µM (inactive) with SK-MEL-28.
For `C=CCn1c(N)c(C#N)c(C#N)c1CCC`, the GI50 in the test on OVCAR-4, in the test on NCI-H522, in the test on A549, with RPMI-8226, with NCI-H23 and in the test on TK-10 was > 100 µM (inactive) in each case. Besides, the GI50 with CCRF-CEM, in the test with KM12, with MDA-MB-231, in the test with Hs-578T, in the test on CAKI-1 and with DU-145 was > 100 µM (inactive) throughout. Further, the GI50 with U-251, with NCI/ADR-RES, in the test with HOP-62, in the test with K562, with A498 and in the test with SNB-19 was > 100 µM (inactive) each time.
